Data reported in US20200010479A1, “INHIBITORS OF MICROBIAL BETA-GLUCURONIDASE ENZYMES AND USES THEREOF” (THE UNIVERSITY OF NORTH CAROLINA AT CHAPEL HILL, priority 2017, published 2020).

What was measured:
[1] = test system: C3-Tag mammary tumors; test: C3-Tag genetically engineered mouse model (GEMM) of triple-negative breast cancer
[2] = test system: SUM149 cells; test: SUM149 triple negative breast cancer xenograft in athymic nude mice
[3] = test system: gut microbiota; test: Gut microbiota composition in C3Tag GEMM animals; assay type: in vivo, C3Tag GEMM mice
Excerpt: Finally, we examined the effects of irinotecan and GUS inhibitor on the composition of the gut microbiota in […] triple-negative breast cancer GEMM animals. […] While the vehicle and Inh9 treatment groups appeared similar by PCoA1 analysis, both the irinotecan and IRI+Inh9 groups were similar to each other and distinct from the non-irinotecan mice (FIG. 22C). However, unlike the xenograft mice, irinotecan induces much smaller changes in the composition of the gut microbiota in these GEMM animals. […] These changes were not as dramatic as those observed with the athymic Sum149 xenograft mice presented above. […] In these GEMM animals, though, no change in Enterobacteriaceae or other Gammaproteobacteria families was observed; thus, the taxa that drive the increases in Proteobacteria are not known in these immune-competent mice.

[4] = test system: murine intestinal epithelium; test: Time-course of gut damage after a single treatment in FVB mice; assay type: in vivo, female FVB mice
Experimental: It has been previously reported that irinotecan induces apoptosis and reduces the number of mitotic structures in the rat intestinal epithelium (Takasuna 1996). To assess whether Inh9 impacts cell proliferation in the murine intestinal epithelium, we undertook two time-course studies. Four groups of age-, weight- and litter-matched female FVB mice were treated with a single treatment of vehicle, Inh9 (1 mg/kg p.o.), irinotecan (50 mg/kg i.p.) or irinotecan and Inh9. One set of animals were euthanized after 24 hours, and a second set after 120 hours. To assess overall effects on the animals, changes in body weight, spleen mass and hematocrit were measured. In the GI tract, levels of apoptotic cells and proliferative cells were measured and epithelial samples were examined by H&E staining.
Thus, at five days, Inh9 appears to protect this measure of animal health. […] As such, the protection afforded at 24 hours by Inh9 is sufficient to improve subsequent gut epithelial outcomes in mice several days after administration.

[5] = test system: C3-Tag mammary tumors; settings: mouse, in vivo
[6] = test system: gut microbial GUS enzymes; settings: irinotecan alone; cited from earlier work
[7] = test system: SUM149 cells; settings: athymic nude, mouse, in vivo, 5 days
[8] = therapeutically-relevant doses; cited from earlier work
[9] = test system: gut microbiota; test: 16S rRNA metataxonomic analysis of luminal contents, athymic Sum149 xenograft mice; assay type: in vivo
Experimental: A metataxonomic analysis was performed of the luminal contents of athymic mice bearing Sum149 triple-negative breast cancer xenograft tumors by sequencing the V3-V4 region of the bacterial 16s rRNA gene. […] Gut microbial diversity is associated with animal and human health, while reduced diversity is associated with disease in both model organisms and humans (REFs). Thus, Inh9 blunts the negative effects of irinotecan on gut microbial diversity in athymic tumor xenograft mice, and is capable of increases species richness in these animals.
At the phylum level, the lumenal contents of vehicle-treated mice contained 50% Bacteroidetes, 42% Firmicutes, and 4% Proteobacteria (FIG. 22B). […] Thus, in immune-deficient mice, Inh9 markedly protects gut microbial composition in athymic mice, increasing diversity and reducing irinotecan-induced increases in Proteobacteria.

[10] = test system: gut microbial enzymes; test: SN-38-G reactivation in fimo samples after treatment of FVB mice; assay type: in vivo
Experimental: The FVB mice were treated with irinotecan, the Inh9, or both irinotecan and Inh9, and it was determined how these treatments affected SN-38-G reactivation in fimo samples collected after 24 hours. […] A similar study was conducted in which samples were collected at 120 hours; at this five-day timepoint, no difference was found between the four treatment groups (data not shown).

CCc1c2c(nc3ccc(OC(=O)N4CCC(N5CCCCC5)CC4)cc13)-c1cc3c(c(=O)n1C2)COC(=O)[C@]3(O)CC [irinotecan, (S)-4,11-diethyl-3,4,12,14-tetrahydro-4-hydroxy-3,14-dioxo1H-pyrano[3′,4′:6,7]-indolizino[1,2-b]quinolin-9-yl-[1,4′bipiperidine]-1′-carboxylate, reference compound]
number of tumors observed in the animals ([1]; between treatment groups): did not differ | time until euthanasia was required for all animals ([1]; irinotecan alone, after the initiation of therapy): 28 days | primary tumor as share of body weight ([1]; single agent): 3% | primary tumor mass upon sacrifice ([1]; single agent): ~1 g | time to early-onset diarrhea ([2]; both irinotecan treatment groups): ≤ 12 h | time until the entire cohort required euthanasia ([2]; irinotecan alone, following the first treatment): 10 days | post-sacrifice colon histological examination ([2]; single agent): dramatic irinotecan-induced epithelial damage | terminal tumor masses ([2]; single agent): significantly reduced | Proteobacteria and Gammaproteobacteria, Verrucomicrobia and Verrocumicrobiae levels ([3]; irinotecan alone or in combination with GUS inhibitor vs no irinotecan): significant increases | composition of the gut microbiota ([3]; mice with intact immune system): sole driver of changes | time to apoptotic crypt damage in the murine small intestine ([4]; irinotecan): ≤ 24 h | spleen mass ([4]; single IRI injection, five days): unchanged | body mass ([4]; single IRI injection, over five days): modest body mass reduction | proliferative (BrdU+) cells per crypt in ileum, proximal colon and distal colon ([4]; single agent compared to vehicle or Inh9, 120 hours): significantly decreased | time within which all animals developed diarrhea ([5]; female, C3-Tag (strain of origin FVB/N)): ≤ 14 days | body weight over the course of the study [5]: consistently lost weight | colon tissue, H&E staining [5]: almost completely destroyed glandular structure | time to lethal intestinal toxicity [6]: ≤ 10 days | mice that developed late-onset, delayed diarrhea [7]: 50% | patients who develop diarrhea of all grades [8]: 88% | patients with life-threatening grade 3-4 diarrhea [8]: 30% | increase in the levels of Proteobacteria ([9]; irinotecan, athymic xenograft mice): ten-fold increase | Bacteroidetes in lumenal contents, phylum level ([9]; single agent): 35% | Firmicutes in lumenal contents, phylum level ([9]; single agent): 16% | Proteobacteria in lumenal contents, phylum level ([9]; single agent): 46% | species diversity, Chao1 richness ([9]; single agent): significant drop | effects on SN-38-G reactivation by in fimo samples ([10]; samples collected at 120 hours): no longer detected | SN-38-G processing activity in the mouse cecum (in fimo samples) ([10]; single agent, samples collected after 24 hours): significantly increased
